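Grown in 96-well plates, cells were treated for 48 hours with each compound at five concentrations. Insufficient inhibition: endpoint recorded as highest concentration tested. GI50 = concentration required for 50% inhibition of growth.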 Calls of active or inactive are those of the source. Rule as the data show it: active = GI50 up to about 1.1 µM and inactive = higher.
Experiments:
Assay in all cases: NCI anticancer screen, dose series, 48 h
TK-10 = system: TK-10
HCC 2998 = system: HCC 2998
A498 = system: A498
SF-539 = system: SF-539
OVCAR-5 = system: OVCAR-5
MDA-MB-435 = system: MDA-MB-435
T47D = system: T47D
UACC-62 = system: UACC-62
A549 = system: A549
HCT-116 = system: HCT-116
SNB-19 = system: SNB-19
U-251 = system: U-251
M14 = system: M14
MOLT-4 = system: MOLT-4
IGROV-1 = system: IGROV-1
NCI/ADR-RES = system: NCI/ADR-RES
DU-145 = system: DU-145
HOP-92 = system: HOP-92
KM-20L2 = system: KM-20L2
LXFL 529 = system: LXFL 529

Row | Structure (SMILES) | GI50 (TK-10) | GI50 (HCC 2998) | GI50 (A498) | GI50 (SF-539) | GI50 (OVCAR-5) | GI50 (MDA-MB-435) | GI50 (T47D) | GI50 (UACC-62) | GI50 (A549) | GI50 (HCT-116) | GI50 (SNB-19) | GI50 (U-251) | GI50 (M14) | GI50 (MOLT-4) | GI50 (IGROV-1) | GI50 (NCI/ADR-RES) | GI50 (DU-145) | GI50 (HOP-92) | GI50 (KM-20L2) | GI50 (LXFL 529)
1 | CC1=[N+]([O-])C(C)(C)N(O)C1(C)C | > 100 µM (inactive) | > 100 µM (inactive) | > 100 µM (inactive) | > 100 µM (inactive) | > 100 µM (inactive) | > 100 µM (inactive) | > 100 µM (inactive) | > 100 µM (inactive) | > 100 µM (inactive) | > 100 µM (inactive) | > 100 µM (inactive) | > 100 µM (inactive) | > 100 µM (inactive) | > 100 µM (inactive) | > 100 µM (inactive) | > 100 µM (inactive) | > 100 µM (inactive) | > 100 µM (inactive) | – | –
2 | CCOC(=O)N[C@H]1CCc2cc(OC)c(OC)c(OC)c2-c2ccc(SC)c(=O)cc21 | 1 µM (active) | < 0.01 µM (active) | < 0.01 µM (active) | < 0.01 µM (active) | 0.317 µM (active) | < 0.01 µM (active) | > 54.6 µM (inactive) | < 0.01 µM (active) | < 0.01 µM (active) | < 0.01 µM (active) | 0.108 µM (active) | < 0.01 µM (active) | < 0.01 µM (active) | < 0.01 µM (active) | < 0.01 µM (active) | 0.0228 µM (active) | < 0.01 µM (active) | < 0.01 µM (active) | < 0.01 µM (active) | –
3 | Cc1ccccc1NC(=O)C(=O)Cc1nc2ccccc2s1 | > 100 µM (inactive) | > 100 µM (inactive) | > 100 µM (inactive) | > 100 µM (inactive) | > 100 µM (inactive) | – | – | – | > 100 µM (inactive) | > 100 µM (inactive) | > 100 µM (inactive) | > 100 µM (inactive) | > 100 µM (inactive) | > 100 µM (inactive) | > 100 µM (inactive) | – | – | > 100 µM (inactive) | – | > 100 µM (inactive)
4 | COC(=O)c1ccccc1N1C(=O)Cc2ccccc2C1=O | > 100 µM (inactive) | > 100 µM (inactive) | – | 75.3 µM (inactive) | > 100 µM (inactive) | – | – | 72.6 µM (inactive) | > 100 µM (inactive) | > 10 µM (inactive) | > 100 µM (inactive) | > 100 µM (inactive) | – | > 100 µM (inactive) | > 100 µM (inactive) | – | – | – | > 100 µM (inactive) | > 100 µM (inactive)
5 | COc1ccc(C2S/C(=C\c3cccc([N+](=O)[O-])c3)C(=O)N2NC(=O)Cc2ccccc2)cc1 (stereo not given) | > 100 µM (inactive) | – | > 100 µM (inactive) | > 100 µM (inactive) | > 100 µM (inactive) | – | – | > 100 µM (inactive) | > 100 µM (inactive) | > 100 µM (inactive) | – | > 100 µM (inactive) | > 100 µM (inactive) | > 100 µM (inactive) | > 100 µM (inactive) | – | – | > 100 µM (inactive) | – | > 100 µM (inactive)
6 | O=C(c1ccc(Cl)cc1)c1ccc(OCCCCCCCCCCOc2ccc(C(=O)c3ccc(Cl)cc3)cc2)cc1 | > 100 µM (inactive) | > 100 µM (inactive) | > 100 µM (inactive) | – | > 100 µM (inactive) | – | – | > 100 µM (inactive) | > 100 µM (inactive) | – | > 100 µM (inactive) | > 100 µM (inactive) | – | > 100 µM (inactive) | > 100 µM (inactive) | – | – | > 100 µM (inactive) | > 100 µM (inactive) | –
7 | COc1cc(C(=O)C/C(CCC(=O)Nc2ccccc2[N+](=O)[O-])=N\NC(N)=O)ccc1O | > 100 µM (inactive) | > 100 µM (inactive) | > 100 µM (inactive) | > 100 µM (inactive) | > 100 µM (inactive) | – | – | > 100 µM (inactive) | > 100 µM (inactive) | > 100 µM (inactive) | > 100 µM (inactive) | > 100 µM (inactive) | > 100 µM (inactive) | > 100 µM (inactive) | > 100 µM (inactive) | – | – | > 100 µM (inactive) | > 100 µM (inactive) | –
8 | COc1c(C(=O)O)oc2c(OC)cccc12 | > 100 µM (inactive) | > 100 µM (inactive) | > 100 µM (inactive) | > 100 µM (inactive) | > 100 µM (inactive) | – | – | > 100 µM (inactive) | > 100 µM (inactive) | > 100 µM (inactive) | > 100 µM (inactive) | > 100 µM (inactive) | > 100 µM (inactive) | > 100 µM (inactive) | > 100 µM (inactive) | – | – | > 100 µM (inactive) | – | > 100 µM (inactive)
9 | CSC(CC(=O)O)C(=O)O (stereo not given) | > 100 µM (inactive) | 12.5 µM (inactive) | > 100 µM (inactive) | > 100 µM (inactive) | > 100 µM (inactive) | > 100 µM (inactive) | > 100 µM (inactive) | > 100 µM (inactive) | > 100 µM (inactive) | > 100 µM (inactive) | > 100 µM (inactive) | > 100 µM (inactive) | > 100 µM (inactive) | > 100 µM (inactive) | > 100 µM (inactive) | > 100 µM (inactive) | > 100 µM (inactive) | > 100 µM (inactive) | – | –
10 | COc1ccc2nc3ccc(OC)cc3c(S(=O)(=O)Cc3ccc([N+](=O)[O-])cc3)c2c1 | > 100 µM (inactive) | > 100 µM (inactive) | > 100 µM (inactive) | > 100 µM (inactive) | > 100 µM (inactive) | > 100 µM (inactive) | > 100 µM (inactive) | > 100 µM (inactive) | > 100 µM (inactive) | > 100 µM (inactive) | > 100 µM (inactive) | > 100 µM (inactive) | > 100 µM (inactive) | > 100 µM (inactive) | > 100 µM (inactive) | > 100 µM (inactive) | > 100 µM (inactive) | > 100 µM (inactive) | – | –
11 | Oc1ccc2c(c1)-c1c(c3cc(O)ccc3n1CCN1CCOCC1)CC2 | 41.1 µM (inactive) | 16.9 µM (inactive) | 21 µM (inactive) | 22.6 µM (inactive) | 34.8 µM (inactive) | 17.8 µM (inactive) | 18.8 µM (inactive) | 16.7 µM (inactive) | 28.4 µM (inactive) | 19.1 µM (inactive) | 29 µM (inactive) | 19.7 µM (inactive) | 19.5 µM (inactive) | 19.6 µM (inactive) | 24.2 µM (inactive) | 24.8 µM (inactive) | 28.4 µM (inactive) | 26.1 µM (inactive) | – | –
12 | O=[N+]([O-])c1cc2c(c3nonc13)OCCCCO2 | 21.8 µM (inactive) | 17.3 µM (inactive) | 24.9 µM (inactive) | 2.82 µM (inactive) | 12.1 µM (inactive) | 5.25 µM (inactive) | 26.5 µM (inactive) | 5.77 µM (inactive) | 10.3 µM (inactive) | 1.75 µM (inactive) | 13.4 µM (inactive) | 7.1 µM (inactive) | 5 µM (inactive) | 3.99 µM (inactive) | 9.16 µM (inactive) | 10.5 µM (inactive) | 15 µM (inactive) | 12.7 µM (inactive) | – | –
13 | CCOC(=O)CN1C(=O)c2c(c(C)n(-c3ccccc3)c2C)C1=O | > 100 µM (inactive) | > 100 µM (inactive) | > 100 µM (inactive) | 91.2 µM (inactive) | > 100 µM (inactive) | > 100 µM (inactive) | > 100 µM (inactive) | > 100 µM (inactive) | > 100 µM (inactive) | > 100 µM (inactive) | > 100 µM (inactive) | 73.5 µM (inactive) | > 100 µM (inactive) | > 100 µM (inactive) | > 100 µM (inactive) | > 100 µM (inactive) | > 100 µM (inactive) | > 100 µM (inactive) | – | –
14 | CCCC(O)[C@@H](O)c1ccc2c(c1O)C(=O)c1c(OC)cccc1C2=O (stereo not given in full) | 51.4 µM (inactive) | 19.4 µM (inactive) | 34.5 µM (inactive) | 24.2 µM (inactive) | 54.7 µM (inactive) | – | – | 25.9 µM (inactive) | 44 µM (inactive) | 38.5 µM (inactive) | 80.4 µM (inactive) | 27.2 µM (inactive) | 31.6 µM (inactive) | 21.1 µM (inactive) | 30.7 µM (inactive) | – | – | 58.2 µM (inactive) | 50.9 µM (inactive) | –
15 | CC1C=CC(C)C2(O)C(=O)NC(O)C12 (stereo not given) | > 100 µM (inactive) | > 100 µM (inactive) | > 100 µM (inactive) | > 100 µM (inactive) | – | – | – | > 100 µM (inactive) | > 100 µM (inactive) | > 100 µM (inactive) | > 100 µM (inactive) | > 100 µM (inactive) | > 100 µM (inactive) | > 100 µM (inactive) | > 100 µM (inactive) | – | – | – | > 100 µM (inactive) | > 100 µM (inactive)
16 | COc1cc2c(cc1OC)C(=O)/C(=C/c1cc(Cl)cc(Cl)c1)C2 | 55.3 µM (inactive) | 0.351 µM (active) | 17 µM (inactive) | 2.49 µM (inactive) | > 34.1 µM (inactive) | 1.7 µM (inactive) | 7.4 µM (inactive) | 3.39 µM (inactive) | 12.1 µM (inactive) | 3.58 µM (inactive) | > 26.4 µM (inactive) | 5.32 µM (inactive) | 4.18 µM (inactive) | 5.08 µM (inactive) | 2.65 µM (inactive) | 1.76 µM (inactive) | 10.6 µM (inactive) | 18.7 µM (inactive) | – | –
17 | COc1ccc(C2Cc3cc(OC)c(OC)c(OC)c3C2)cc1 (stereo not given) | 30.3 µM (inactive) | 49.9 µM (inactive) | 28.6 µM (inactive) | 64.7 µM (inactive) | 90.4 µM (inactive) | – | – | 66.1 µM (inactive) | 22 µM (inactive) | 41 µM (inactive) | 55.6 µM (inactive) | 73.5 µM (inactive) | 35.6 µM (inactive) | 22.4 µM (inactive) | > 100 µM (inactive) | – | – | – | 49.8 µM (inactive) | –

Reference: ChEMBL document CHEMBL1201862, “PubChem BioAssay data set” (2004)
